Reference: patent US20240165259A1, “BIOORTHOGONAL REACTION SUITABLE FOR CLICK/UNCLICK APPLICATIONS” (DANA-FARBER CANCER INSTITUTE, INC., priority 2021, published 2024)
Several values for one entry are separate records, joined by “and”; a condition that tells them apart may be missing. Equal entries are not always repeated.

Columns and labels:
[1] = Reactivity screening of linear alkynes 8′-15′ (NMR conversion); type: physicochemical; details: 10 mM alkyne, 5 equivalents hydroxylamine, CD3CN, room temperature, 48 hours
Experimental: With the desired alkynes in hand, their reactivity toward N,N-diethylhydroxylamine (2′) was examined. […] were each incubated with 5 equivalents of […] in CD3CN at room temperature, and the reaction conversions were monitored by ^1H (alkyne 8′) or ^19F (alkynes 9′-15′) NMR (FIG. 12A). […] Their conversion to the corresponding enamine N-oxides could only be achieved upon heating to 60° C. (Example 59).
Each experiment was performed with 10 mM alkyne (8′-15′) and 50 mM […] in CD3CN at room temperature. The consumption of starting material was monitored via ^1H (8′) or ^19F (9′-15′) NMR spectroscopy using α,α,α-benzotrifluoride as an internal standard (FIG. 12A).

[2] = Second-order kinetics of cyclooctyne hydroamination by N,N-diethylhydroxylamine (NMR; competition experiment for 10); type: physicochemical; details: CD3CN, room temperature; for k2 (M^−1s^−1), second order rate constant: equimolar cyclooctyne and N,N-diethylhydroxylamine, NMR, error = standard deviation of the mean, triplicate
Experimental: Using NMR spectroscopy to monitor reaction progress, the second order rate constants for the reaction of N,N-diethylhydroxyl amine (1) with a panel of cyclooctynes 2-10 in d3-acetonitrile was determined at room temperature (FIG. 3).
All kinetics experiments were carried out at room temperature in CD3CN. Reactions were monitored via NMR spectroscopy using an internal standard. Second order kinetics were performed by combining cyclooctynes and N,N-diethylhydroxylamine in a 1:1 ratio. […] The reported errors for rate constants are based on the standard deviation of the mean for experiments performed in triplicate.
The second order rate constant for difluorocyclooctyne 10 was determined using a competition experiment with carbamate 9. […] The solution was transferred to an NMR tube and the product ratio (S14:S13) was determined by ^1HNMR spectroscopy using 1,3,5-trimethoxylbenzene as an internal standard. […] The reported error for the rate constant is the standard deviation of the mean for experiments performed in triplicate.

[3] = target: T1, lysozyme-cyclooctyne conjugate (Lys-COT) 11″ (Gallus gallus, UniProt P00698); test: Time-dependent labeling of Lys-COT 11″ by TAMRA-hydroxylamines 6″-10″ (in-gel fluorescence); type: biochemical; details: 200 μM hydroxylamine, 10 μM Lys-COT 11″, PBS; for extent of lysozyme labeling: 1-72 h; for time to complete conversion (lysozyme labeling): room temperature
T1 construct: purchased
T1 sequence (P00698 19-147): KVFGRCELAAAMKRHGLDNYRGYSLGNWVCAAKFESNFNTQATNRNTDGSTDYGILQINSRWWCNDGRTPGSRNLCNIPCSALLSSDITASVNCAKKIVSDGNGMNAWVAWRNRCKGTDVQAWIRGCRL
Experimental: The relative rates of hydroamination between TAMRA-hydroxylamines 6″-10″ ([…]) and Lys-COT 11″ (10 μM) were evaluated by monitoring the extent of lysozyme labeling over 1-72 h in phosphate-buffered saline (PBS) at room temperature by in-gel fluorescence (FIG. 26B).
Lysozyme (CAS 12650-88-3, 50 mg/mL in deionized H2O) was diluted into phosphate-buffered saline (PBS, pH 7.4) to a final concentration of 10 mg/mL. […] The reaction solution was incubated for 1 h at room temperature. […] The concentration of lysozyme was determined by A280 measurement in denaturing buffer (pH 7.0, 6 M guanidinium, 30 mM MOPS) on a UV-vis spectrophotometer. The solution was diluted with PBS (pH 7.4) to a final concentration of 0.15 mg/mL or 0.60 mg/mL for labeling experiments. The protein solutions were snap frozen under liquid nitrogen and stored at −20° C.
Time-dependent protein labeling experiments: A solution of TAMRA-hydroxylamine 6″ (Kang, et al., J. Am. Chem. Soc. 143:5616-5621 (2021))-8″ and 10″ (1.26 μL, 5 mM in H2O; 200 μM final concentration) or 9″ (1.26 μL, 5 mM in 50% DMSO/H2O; 200 μM final concentration) was added to a solution of lysozyme-COT 11″ (30.0 μL, 0.15 mg/mL in PBS, pH 7.4). The reaction mixtures were incubated at room temperature in the dark. At each time point, an aliquot of the reaction mixture (3 uL) was removed, quenched by adding 1×SDS sample buffer (19.5 μL) and N,N-diethylhydroxylamine (7.5 uL, 100 mM in H2O; 25 mM final concentration), snap frozen in liquid nitrogen, and stored at −80° C. until all samples were ready to be loaded on the gel. After 72 h, all reactions had been quenched. All samples were thawed, and each solution (6 μL) was loaded onto a 15-well 12% SDS-PAGE gel. The gel was run at room temperature and at 175 V for 50 min. In-gel fluorescence was imaged with a Typhoon™ FLA 9500 (GE) at 532 nm with a photomultiplier tube (PMT) setting of 500 V (FIG. 35-FIG. 37).

[4] = Stability study of alkynes and enamine N-oxide 20′ in 50% CD3CN/PBS with or without glutathione or cell lysate (19F NMR); type: physicochemical; details: for time over which compound is stable: 2 mM compound, 50% CD3CN/PBS (pH 7.0), 19F NMR; for degradation by 19F NMR without glutathione: pH 7.0, room temperature, 7 days
Experimental: The stability of alkynes 13′-15′ under biological conditions was evaluated (FIG. 13B). […] These stabilities compared favorably with contemporary bioorthogonal transformations (Oliveira et al., Chem. Soc. Rev. 46(16):4895-4950 (2017); Tian et al., ACS Chem. Biol. 14(12):2489-2496 (2019)). […] This observation was consistent with σ-withdrawing/n-donating alkyne substituents, such as halogens, simultaneously promoting hydroamination and attenuating conjugate addition by cellular nucleophiles.
The enamine N-oxide products were remarkably stable, especially in aqueous solutions.
All stability experiments were carried out at room temperature in 50% CD3CN in PBS (pH 7.0) with or without equimolar glutathione. pH was adjusted after the addition of glutathione. Reactions were monitored via ^19F NMR spectroscopy using α,α,α-benzotrifluoride as an internal standard (FIG. 17-FIG. 20).

With C#CC(F)(F)OCCOCc1ccc(OC)cc1 [11′, 1-((2-((1,1-difluoroprop-2-yn-1-yl)oxy)ethoxy)methyl)-4-methoxybenzene] the “reactivity toward N,N-dialkylhydroxylamine (NMR conversion)” value [1] was “moderate reactivity”.
In the case of C1#CC2(CCCCC1)OCCO2 [compound 5, 1,4-dioxaspiro[4.7]dodec-6-yne], the “k2 (M^−1s^−1), second order rate constant” value [2] is reported as 1.20 ± 0.09 M⁻¹ s⁻¹.
For CN(C)c1ccc2c(c1)Oc1cc(N(C)C)ccc1C21OC(=O)c2ccc(C(=O)NCCOCCN(O)C(C)(C)C)cc21 [8″, N-(2-(2-(tert-Butyl(hydroxy)amino)ethoxy)ethyl)-3′,6′-bis(dimethylamino)-3-oxo-3H-spiro[isobenzofuran-1,9′-xanthene]-6-carboxamide], the “extent of lysozyme labeling” value [3] was “poor labeling”.
In the case of FC1C#CCCCCC1 (centres unmarked) [compound 7, 3-fluorocyclooct-1-yne], the “k2 (M^−1s^−1), second order rate constant” value [2] is reported as 2.71 ± 0.43 M⁻¹ s⁻¹.
With OC1C#CCCCCC1 (centres unmarked) [compound 4, cyclooct-2-yn-1-ol] the “k2 (M^−1s^−1), second order rate constant” value [2] was 1.19 ± 0.15 M⁻¹ s⁻¹.
In the case of “dibenzoazacyclooctyne [compound 8, reference compound]”, the “k2 (M^−1s^−1), second order rate constant” value [2] is reported as 2.77 ± 0.13 M⁻¹ s⁻¹.
For COc1ccc(COCCOC(F)(F)C#CCl)cc1 [14′, 1-((2-((3-chloro-1,1-difluoroprop-2-yn-1-yl)oxy)ethoxy)methyl)-4-methoxybenzene], the “time over which compound is stable” value [4] was at least 2 weeks and the “degradation by 19F NMR without glutathione” value ([4]; 50% CD3CN/PBS) was “no degradation”.
For CC(=O)OC1C#CCCCCC1 (centres unmarked) [compound 6, cyclooct-2-yn-1-yl acetate], the “k2 (M^−1s^−1), second order rate constant” value [2] was 2.13 ± 0.03 M⁻¹ s⁻¹.
In the case of C#CC(F)(F)CCOCc1ccc(OC)cc1 [10′, 1-(((3,3-difluoropent-4-yn-1-yl)oxy)methyl)-4-methoxybenzene], the “reactivity toward N,N-dialkylhydroxylamine (NMR conversion)” value [1] is reported as “partial conversion”.
With C#CCOCc1ccc(OC)cc1 [8′, 1-methoxy-4-((prop-2-yn-1-yloxy)methyl)benzene] the “reactivity toward N,N-dialkylhydroxylamine (NMR conversion)” value [1] was “no conversion”.
For COc1ccc(COCCOC(F)(F)C#CI)cc1 [12′, 1-((2-((1,1-difluoro-3-iodoprop-2-yn-1-yl)oxy)ethoxy)methyl)-4-methoxybenzene], the “reactivity toward N,N-dialkylhydroxylamine (NMR conversion)” value [1] was “moderate reactivity”.
In the case of CC(C)N(O)CCOCCNC(=O)c1ccc2c(c1)C1(OC2=O)c2ccc(N(C)C)cc2Oc2cc(N(C)C)ccc21 [7″, 3′,6′-Bis(dimethylamino)-N-(2-(2-(hydroxy(isopropyl)amino)ethoxy)ethyl)-3-oxo-3H-spiro[isobenzofuran-1,9′-xanthene]-6-carboxamide], the “extent of lysozyme labeling” value [3] is reported as “poor labeling”.
With CN(C)c1ccc2c(c1)Oc1cc(N(C)C)ccc1C21OC(=O)c2ccc(C(=O)N3CCN(O)CC3)cc21 [10″, 3′,6′-Bis(dimethylamino)-6-(4-hydroxypiperazine-1-carbonyl)-3H-spiro[isobenzofuran-1,9′-xanthen]-3-one] the “time to complete conversion (lysozyme labeling)” value [3] was at most 10 h.
With COc1ccc(COCCC(F)(F)C#CCl)cc1 [15′, 1-(((5-chloro-3,3-difluoropent-4-yn-1-yl)oxy)methyl)-4-methoxybenzene] the “time over which compound is stable” value [4] was at least 1 weeks, the half-life ([4]; 50% CD3CN/PBS with 2 mM glutathione, pH 7, 50% CD3CN/PBS, pH 7.0, 2 mM glutathione, room temperature (500 μM compound elsewhere in the source), read-out: half-life in the presence of glutathione (converted)) was 2580 min and the “degradation by 19F NMR without glutathione” value ([4]; 50% CD3CN/PBS) was “no degradation”.
With COc1ccc(COCCOC(F)(F)C#CBr)cc1 [13′, 1-((2-((3-bromo-1,1-difluoroprop-2-yn-1-yl)oxy)ethoxy)methyl)-4-methoxybenzene] the “time to degradation in the presence of thiol” value ([4]; 50% CD3CN/PBS, pH 7.0, 2 mM glutathione) was under 10 min.
In the case of CN(C)c1ccc2c(c1)Oc1cc(N(C)C)ccc1C21OC(=O)c2ccc(C(=O)NCCOCCN(O)Cc3ccccc3)cc21 [9″, N-(2-(2-(Benzyl(hydroxy)amino)ethoxy)ethyl)-3′,6′-bis(dimethylamino)-3-oxo-3H-spiro[isobenzofuran-1,9′-xanthene]-6-carboxamide], the “time to complete conversion (lysozyme labeling)” value [3] is reported as at most 6 h.
For O=C(Nc1ccc([N+](=O)[O-])cc1)OC1C#CCCCCC1 (centres unmarked) [compound 9, cyclooct-2-yn-1-yl (4-nitrophenyl)carbamate], the “rate acceleration over cyclooctyne (2)” value [2] was 120 fold and the “k2 (M^−1s^−1), second order rate constant” value [2] was 3.87 M⁻¹ s⁻¹ and 3.87 ± 0.55 M⁻¹ s⁻¹.
With CC[N+]([O-])(CC)/C(Cl)=C/C(F)(F)OCCOCc1ccc(OC)cc1 [20′, (Z)-1-chloro-N,N-diethyl-3,3-difluoro-3-(2-((4-methoxybenzyl)oxy)ethoxy)prop-1-en-1-amine oxide] the “degradation in cell lysate” value ([4]; cell lysate, room temperature, 24 hours) was “no observable degradation”.
In the case of C#CC(F)CCOCc1ccc(OC)cc1 (centres unmarked) [9′, 1-(((3-fluoropent-4-yn-1-yl)oxy)methyl)-4-methoxybenzene], the “reactivity toward N,N-dialkylhydroxylamine (NMR conversion)” value [1] is reported as “no conversion”.
